# Earlier results, collected in patent publication US10071054B2, “Econazole composition and methods of treatment therewith” (Exeltis USA Dermatology, Inc., priority 2010, dated 2018).
# Assays:
# [1] = Liao et al., Yao Xue Xue Bao 28 (1):22-7 (1993)
# [2] = test system: dermatophytes and yeasts; conditions: most strains of Epidermophyton floccosum, Microsporum audouinii, M. canis, M. gypseum, Trichophyton mentagrophytes, T. rubrum, T. tonsurans, Candida albicans, Malassezia furfur
smiles,measurement,setting,value
Clc1ccc(CO[C@@H](Cn2ccnc2)c2ccc(Cl)cc2Cl)cc1 [(R)-(−)-econazole],antifungal activity of stereoisomer,[1],greater antifungal activity
Clc1ccc(COC(Cn2ccnc2)c2ccc(Cl)cc2Cl)cc1 (centres unmarked) [Econazole nitrate],activity against dermatophytes and yeasts,[2],shown activity
